According to patent US9969694B2, “N-(arylalkyl)-N′-pyrazolyl-urea, thiourea, guanidine and cyanoguanidine compounds as TrkA kinase inhibitors” (Array BioPharma Inc., priority 2012, dated 2018):
Values belong to the compound of their own block, whether it stands above or below them.

Legend:
Experiment in all cases: Off-Target Kinase Profiling
Assay type in all cases: biochemical
Settings in all cases: 10 μM; ATP near Km
[1] = target: T1, TBK1 (Homo sapiens, UniProt Q9UHD2)
T1 construct: purchased Millipore, Inc. (KinaseProfiler service)
Summary of the method: (§1)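 Kinase activity remaining in the presence of 10 μM compound, as percent of control; mean of two runs. ATP near Km for each kinase.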

[2] = target: T2, ARK5 (Homo sapiens, UniProt O60285)
T2 construct: purchased Millipore (KinaseProfiler service)
Summary of the method: as §1

[3] = target: T3, EphA7 (Homo sapiens, UniProt Q15375)
T3 construct: purchased Millipore, Inc. (KinaseProfiler service)
Summary of the method: as §1

[4] = target: T4, NEK11 (Homo sapiens, UniProt Q8NG66)
T4 construct: purchased Millipore, Inc. (KinaseProfiler service)
Summary of the method: as §1

[5] = target: T5, CK1gamma1 (Homo sapiens, UniProt Q9HCP0)
T5 construct: purchased Millipore, Inc. (KinaseProfiler service)
Summary of the method: as §1

[6] = target: T6, IR (Homo sapiens, UniProt P06213)
T6 construct: purchased Millipore, Inc. (KinaseProfiler service)
Summary of the method: as §1

[7] = target: T7, LIMK1 (Homo sapiens, UniProt P53667)
T7 construct: purchased Millipore, Inc. (KinaseProfiler service)
Summary of the method: as §1

[8] = target: T8, ROCK-II (Homo sapiens, UniProt O75116)
T8 construct: purchased Millipore, Inc. (KinaseProfiler service)
Summary of the method: as §1

[9] = target: T9, PDGFRalpha (Homo sapiens, UniProt P16234)
T9 construct: purchased Millipore, Inc. (KinaseProfiler service)
Summary of the method: as §1

[10] = target: T10, SRC (Homo sapiens, UniProt P12931)
T10 construct: purchased Millipore, Inc. (KinaseProfiler service)
Summary of the method: as §1

[11] = target: T11, MuSK (Homo sapiens, UniProt O15146)
T11 construct: purchased Millipore, Inc. (KinaseProfiler service)
Summary of the method: as §1

[12] = target: T12, FGFR3 (Homo sapiens, UniProt P22607)
T12 construct: purchased Millipore, Inc. (KinaseProfiler service)
Summary of the method: as §1

[13] = target: T13, CK2alpha2 (Homo sapiens, UniProt P19784)
T13 construct: purchased Millipore, Inc. (KinaseProfiler service)
Summary of the method: as §1

[14] = target: T14, p38beta (Homo sapiens, UniProt Q15759)
T14 construct: purchased Millipore, Inc. (KinaseProfiler service)
T14 sequence (Q15759 whole entry): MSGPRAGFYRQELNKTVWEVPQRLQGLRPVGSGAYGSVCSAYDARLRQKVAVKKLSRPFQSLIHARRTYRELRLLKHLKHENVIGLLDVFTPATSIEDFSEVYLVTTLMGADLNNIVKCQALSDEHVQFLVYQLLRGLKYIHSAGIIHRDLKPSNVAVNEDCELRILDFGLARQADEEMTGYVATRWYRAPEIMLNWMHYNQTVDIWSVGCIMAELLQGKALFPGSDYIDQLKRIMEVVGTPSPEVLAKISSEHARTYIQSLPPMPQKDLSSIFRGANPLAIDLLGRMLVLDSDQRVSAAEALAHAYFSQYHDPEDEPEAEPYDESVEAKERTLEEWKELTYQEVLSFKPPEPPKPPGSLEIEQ
Summary of the method: as §1

[15] = system: c-RAF
Summary of the method: as §1

[16] = target: T15, CK2 (Homo sapiens, UniProt P68400)
T15 construct: purchased Millipore, Inc. (KinaseProfiler service)
Summary of the method: as §1

[17] = target: T16, SIK (Homo sapiens, UniProt P57059)
T16 construct: purchased Millipore, Inc. (KinaseProfiler service)
T16 sequence (P57059 whole entry): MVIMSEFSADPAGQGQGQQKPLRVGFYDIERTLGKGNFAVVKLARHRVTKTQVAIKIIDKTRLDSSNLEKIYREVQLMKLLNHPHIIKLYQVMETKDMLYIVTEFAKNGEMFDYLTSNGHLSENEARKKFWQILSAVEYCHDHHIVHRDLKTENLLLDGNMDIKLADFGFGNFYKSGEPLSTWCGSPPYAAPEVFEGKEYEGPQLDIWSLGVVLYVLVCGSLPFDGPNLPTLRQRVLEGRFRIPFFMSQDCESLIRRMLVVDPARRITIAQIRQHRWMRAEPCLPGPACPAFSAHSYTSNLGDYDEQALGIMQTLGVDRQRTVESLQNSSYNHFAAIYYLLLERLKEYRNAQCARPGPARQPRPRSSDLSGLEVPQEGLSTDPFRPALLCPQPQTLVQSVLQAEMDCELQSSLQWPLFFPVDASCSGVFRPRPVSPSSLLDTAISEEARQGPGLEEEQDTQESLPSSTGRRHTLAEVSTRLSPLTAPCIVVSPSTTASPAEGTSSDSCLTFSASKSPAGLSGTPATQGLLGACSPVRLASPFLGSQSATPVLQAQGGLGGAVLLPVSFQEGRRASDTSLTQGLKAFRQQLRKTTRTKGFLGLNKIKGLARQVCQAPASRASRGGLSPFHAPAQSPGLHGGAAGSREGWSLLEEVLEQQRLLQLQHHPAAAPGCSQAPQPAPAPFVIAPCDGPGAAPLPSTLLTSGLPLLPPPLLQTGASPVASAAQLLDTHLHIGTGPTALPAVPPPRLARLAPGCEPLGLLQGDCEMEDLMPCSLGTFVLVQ
Summary of the method: as §1

[18] = target: T17, MAP3K5 (Homo sapiens, UniProt Q99683)
T17 construct: purchased Millipore, Inc. (KinaseProfiler service)
Summary of the method: as §1

[19] = target: T18, PKCalpha (Homo sapiens, UniProt P17252)
T18 construct: purchased Millipore, Inc. (KinaseProfiler service)
Summary of the method: as §1

[20] = target: T19, TLK2 (Homo sapiens, UniProt Q86UE8)
T19 construct: purchased Millipore, Inc. (KinaseProfiler service)
T19 sequence (Q86UE8 whole entry): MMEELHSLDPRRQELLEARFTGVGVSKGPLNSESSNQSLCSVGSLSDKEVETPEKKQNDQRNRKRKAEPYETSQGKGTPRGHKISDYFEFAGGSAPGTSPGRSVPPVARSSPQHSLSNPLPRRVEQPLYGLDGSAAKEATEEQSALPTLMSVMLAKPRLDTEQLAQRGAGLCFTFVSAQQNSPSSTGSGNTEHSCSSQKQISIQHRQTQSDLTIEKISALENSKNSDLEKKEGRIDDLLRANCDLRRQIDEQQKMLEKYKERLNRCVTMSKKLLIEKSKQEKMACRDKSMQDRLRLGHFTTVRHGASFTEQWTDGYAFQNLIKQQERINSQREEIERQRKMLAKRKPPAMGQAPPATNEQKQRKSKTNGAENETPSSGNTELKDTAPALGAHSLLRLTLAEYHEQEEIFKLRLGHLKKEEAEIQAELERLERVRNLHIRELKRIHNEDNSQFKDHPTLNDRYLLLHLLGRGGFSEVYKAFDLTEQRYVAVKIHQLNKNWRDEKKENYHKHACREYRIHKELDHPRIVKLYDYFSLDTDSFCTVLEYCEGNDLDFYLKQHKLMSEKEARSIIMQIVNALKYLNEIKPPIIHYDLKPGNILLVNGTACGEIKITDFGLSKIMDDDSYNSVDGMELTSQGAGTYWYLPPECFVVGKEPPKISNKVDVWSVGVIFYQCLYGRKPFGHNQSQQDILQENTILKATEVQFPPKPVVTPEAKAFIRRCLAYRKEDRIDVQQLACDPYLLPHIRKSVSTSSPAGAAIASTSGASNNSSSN
Summary of the method: as §1

[21] = target: T20, PASK (Homo sapiens, UniProt Q96RG2)
T20 construct: purchased Millipore, Inc. (KinaseProfiler service)
Summary of the method: as §1

[22] = target: T21, CSK (Homo sapiens, UniProt P41240)
T21 construct: purchased Millipore, Inc. (KinaseProfiler service)
Summary of the method: as §1

[23] = target: T22, MKK7beta (Homo sapiens, UniProt O14733)
T22 construct: purchased Millipore, Inc. (KinaseProfiler service)
Summary of the method: as §1

[24] = target: T23, MAP4K2 (Homo sapiens, UniProt Q12851)
T23 construct: purchased Millipore, Inc. (KinaseProfiler service)
Summary of the method: as §1

[25] = target: T24, PKCdelta (Homo sapiens, UniProt Q05655)
T24 construct: purchased Millipore, Inc. (KinaseProfiler service)
Summary of the method: as §1

[26] = target: T25, Yes (Homo sapiens, UniProt P07947)
T25 construct: purchased Millipore, Inc. (KinaseProfiler service)
Summary of the method: as §1

[27] = target: T26, HIPK1 (Homo sapiens, UniProt Q86Z02)
T26 construct: purchased Millipore, Inc. (KinaseProfiler service)
Summary of the method: as §1

[28] = target: T27, JNK2alpha2 (Homo sapiens, UniProt P45984)
T27 construct: purchased Millipore, Inc. (KinaseProfiler service)
Summary of the method: as §1

[29] = target: T28, ALK (Homo sapiens, UniProt Q9UM73)
T28 construct: purchased Millipore (KinaseProfiler service)
Summary of the method: as §1

[30] = target: T29, ITK (Homo sapiens, UniProt Q08881)
T29 construct: purchased Millipore, Inc. (KinaseProfiler service)
Summary of the method: as §1

[31] = target: T30, Fms (Homo sapiens, UniProt P07333)
T30 construct: purchased Millipore, Inc. (KinaseProfiler service)
Summary of the method: as §1

[32] = target: T31, BTK (Homo sapiens, UniProt Q06187)
T31 construct: purchased Millipore (KinaseProfiler service)
T31 sequence (Q06187 whole entry): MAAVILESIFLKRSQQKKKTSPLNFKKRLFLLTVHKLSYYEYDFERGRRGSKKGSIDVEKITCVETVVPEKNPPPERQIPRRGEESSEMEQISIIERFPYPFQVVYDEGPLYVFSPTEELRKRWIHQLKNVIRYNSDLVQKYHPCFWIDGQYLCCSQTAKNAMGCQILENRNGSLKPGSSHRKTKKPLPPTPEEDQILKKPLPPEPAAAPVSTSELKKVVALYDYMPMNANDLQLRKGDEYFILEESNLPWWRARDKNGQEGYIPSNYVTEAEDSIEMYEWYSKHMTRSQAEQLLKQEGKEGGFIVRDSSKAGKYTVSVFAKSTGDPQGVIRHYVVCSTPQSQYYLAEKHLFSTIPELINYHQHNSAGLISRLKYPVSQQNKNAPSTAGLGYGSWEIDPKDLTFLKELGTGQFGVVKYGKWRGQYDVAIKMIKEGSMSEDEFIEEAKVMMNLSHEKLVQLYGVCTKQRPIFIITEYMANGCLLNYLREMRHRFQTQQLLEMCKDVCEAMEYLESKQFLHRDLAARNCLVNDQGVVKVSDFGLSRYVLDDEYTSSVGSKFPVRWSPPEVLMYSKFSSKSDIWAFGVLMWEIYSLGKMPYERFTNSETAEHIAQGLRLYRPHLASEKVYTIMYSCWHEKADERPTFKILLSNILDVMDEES
Summary of the method: as §1

[33] = target: T32, Ros (Homo sapiens, UniProt P08922)
T32 construct: purchased Millipore, Inc. (KinaseProfiler service)
T32 sequence (P08922 28-2347): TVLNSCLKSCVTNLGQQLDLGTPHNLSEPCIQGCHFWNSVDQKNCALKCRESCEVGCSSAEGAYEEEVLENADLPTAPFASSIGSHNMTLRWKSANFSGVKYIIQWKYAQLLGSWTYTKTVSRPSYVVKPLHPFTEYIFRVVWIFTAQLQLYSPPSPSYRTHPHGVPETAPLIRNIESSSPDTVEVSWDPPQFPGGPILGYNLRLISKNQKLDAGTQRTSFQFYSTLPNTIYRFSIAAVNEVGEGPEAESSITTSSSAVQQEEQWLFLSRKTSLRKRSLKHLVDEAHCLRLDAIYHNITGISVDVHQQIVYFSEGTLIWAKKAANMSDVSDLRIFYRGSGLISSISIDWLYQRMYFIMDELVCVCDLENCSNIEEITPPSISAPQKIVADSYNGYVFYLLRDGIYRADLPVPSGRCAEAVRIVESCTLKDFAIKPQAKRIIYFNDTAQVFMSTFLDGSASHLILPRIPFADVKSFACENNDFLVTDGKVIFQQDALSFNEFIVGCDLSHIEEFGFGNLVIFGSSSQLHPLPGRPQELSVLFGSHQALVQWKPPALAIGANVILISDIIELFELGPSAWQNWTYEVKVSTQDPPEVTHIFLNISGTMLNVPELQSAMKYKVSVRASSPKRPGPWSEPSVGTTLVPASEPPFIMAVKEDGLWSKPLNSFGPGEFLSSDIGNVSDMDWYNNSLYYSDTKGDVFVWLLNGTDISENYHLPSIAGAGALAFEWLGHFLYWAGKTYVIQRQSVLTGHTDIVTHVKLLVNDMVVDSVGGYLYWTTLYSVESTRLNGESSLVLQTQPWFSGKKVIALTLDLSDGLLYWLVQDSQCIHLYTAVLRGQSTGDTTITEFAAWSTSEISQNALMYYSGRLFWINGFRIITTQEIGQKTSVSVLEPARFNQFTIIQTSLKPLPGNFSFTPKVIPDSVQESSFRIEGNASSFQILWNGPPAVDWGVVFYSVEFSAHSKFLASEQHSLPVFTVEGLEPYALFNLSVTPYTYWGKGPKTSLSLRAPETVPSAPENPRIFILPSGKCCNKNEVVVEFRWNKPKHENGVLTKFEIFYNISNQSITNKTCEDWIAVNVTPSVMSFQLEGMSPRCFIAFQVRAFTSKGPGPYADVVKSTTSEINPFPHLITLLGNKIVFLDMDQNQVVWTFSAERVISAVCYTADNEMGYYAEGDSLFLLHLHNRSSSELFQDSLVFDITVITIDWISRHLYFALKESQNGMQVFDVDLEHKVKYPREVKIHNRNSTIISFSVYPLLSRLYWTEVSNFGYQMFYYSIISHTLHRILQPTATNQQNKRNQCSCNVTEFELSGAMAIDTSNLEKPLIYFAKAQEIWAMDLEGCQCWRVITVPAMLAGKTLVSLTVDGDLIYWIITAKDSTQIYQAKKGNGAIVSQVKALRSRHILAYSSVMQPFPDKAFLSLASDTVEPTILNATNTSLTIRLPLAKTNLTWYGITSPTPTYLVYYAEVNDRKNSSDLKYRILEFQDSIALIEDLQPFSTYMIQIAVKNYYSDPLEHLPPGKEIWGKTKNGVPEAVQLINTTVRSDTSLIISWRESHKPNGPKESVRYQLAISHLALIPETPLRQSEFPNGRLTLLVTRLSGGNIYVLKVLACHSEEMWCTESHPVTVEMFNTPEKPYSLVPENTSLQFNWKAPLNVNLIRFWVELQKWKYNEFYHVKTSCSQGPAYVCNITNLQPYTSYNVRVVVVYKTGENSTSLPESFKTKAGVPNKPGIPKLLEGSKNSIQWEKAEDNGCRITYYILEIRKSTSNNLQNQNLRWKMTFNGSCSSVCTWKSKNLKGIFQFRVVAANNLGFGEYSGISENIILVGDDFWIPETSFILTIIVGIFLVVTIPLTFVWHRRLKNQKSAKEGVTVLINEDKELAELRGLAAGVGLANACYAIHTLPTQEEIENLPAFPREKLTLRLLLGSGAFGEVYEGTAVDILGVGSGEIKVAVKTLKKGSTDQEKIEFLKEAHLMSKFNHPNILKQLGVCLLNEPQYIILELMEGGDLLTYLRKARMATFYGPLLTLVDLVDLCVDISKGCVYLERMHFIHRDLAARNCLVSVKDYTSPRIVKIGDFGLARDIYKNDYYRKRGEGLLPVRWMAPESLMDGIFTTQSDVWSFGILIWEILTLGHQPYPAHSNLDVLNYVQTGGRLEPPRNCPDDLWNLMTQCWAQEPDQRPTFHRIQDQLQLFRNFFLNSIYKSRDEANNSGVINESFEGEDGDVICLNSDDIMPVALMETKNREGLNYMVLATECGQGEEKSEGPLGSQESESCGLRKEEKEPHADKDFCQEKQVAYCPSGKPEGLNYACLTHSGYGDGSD
Summary of the method: as §1

[34] = target: T33, AKT3 (Homo sapiens, UniProt Q9Y243)
T33 construct: purchased Millipore (KinaseProfiler service)
Summary of the method: as §1

[35] = target: T34, GRK5 (Homo sapiens, UniProt P34947)
T34 construct: purchased Millipore, Inc. (KinaseProfiler service)
Summary of the method: as §1

[36] = target: T35, EphA8 (Homo sapiens, UniProt P29322)
T35 construct: purchased Millipore, Inc. (KinaseProfiler service)
Summary of the method: as §1

[37] = target: T36, PKCzeta (Homo sapiens, UniProt Q05513)
T36 construct: purchased Millipore, Inc. (KinaseProfiler service)
Summary of the method: as §1

[38] = target: T37, AURKA (Homo sapiens, UniProt O14965)
T37 construct: purchased Millipore (KinaseProfiler service)
Summary of the method: as §1

[39] = target: T38, PKCiota (Homo sapiens, UniProt P41743)
T38 construct: purchased Millipore, Inc. (KinaseProfiler service)
Summary of the method: as §1

[40] = target: T39, DMPK (Homo sapiens, UniProt Q09013)
T39 construct: purchased Millipore, Inc. (KinaseProfiler service)
Summary of the method: as §1

[41] = target: T40, KDR (Homo sapiens, UniProt P35968)
T40 construct: purchased Millipore, Inc. (KinaseProfiler service)
Summary of the method: as §1

[42] = target: T41, eEF-2K (Homo sapiens, UniProt O00418)
T41 construct: purchased Millipore, Inc. (KinaseProfiler service)
Summary of the method: as §1

Avg POC TBK1 [1]: 104.5 POC
Avg POC ARK5 [2]: 87 POC
Avg POC EphA7 [3]: 92.5 POC
Avg POC NEK11 [4]: 102 POC
Avg POC CK1gamma1 [5]: 79 POC
Avg POC IR [6]: 90 POC
Avg POC LIMK1 [7]: 92 POC
Avg POC ROCK-II [8]: 98 POC
Avg POC PDGFRalpha [9]: 102 POC
Avg POC SRC [10]: 96 POC
Avg POC MuSK [11]: 95 POC
Avg POC FGFR3 [12]: 104 POC
Avg POC CK2alpha2 [13]: 109 POC
Avg POC p38beta [14]: 101.5 POC
Avg POC c-RAF [15]: 90 POC
Avg POC CK2 [16]: 94.5 POC
Avg POC SIK [17]: 104 POC
Avg POC MAP3K5 [18]: 99 POC
Avg POC PKCalpha [19]: 100.5 POC
Avg POC TLK2 [20]: 97.5 POC
Avg POC PASK [21]: 70 POC
Avg POC CSK [22]: 132 POC
Avg POC MKK7beta [23]: 132.5 POC
Avg POC MAP4K2 [24]: 95.5 POC
Avg POC PKCdelta [25]: 91.5 POC
Avg POC Yes [26]: 88.5 POC
Avg POC HIPK1 [27]: 100.5 POC
Avg POC JNK2alpha2 [28]: 81.5 POC
Avg POC ALK [29]: 102.5 POC
Avg POC ITK [30]: 112 POC
Avg POC Fms [31]: 83.5 POC
Avg POC BTK [32]: 117.5 POC
Avg POC Ros [33]: 97.5 POC
Avg POC AKT3 [34]: 102.5 POC
Avg POC GRK5 [35]: 81.5 POC
Avg POC EphA8 [36]: 97.5 POC
Avg POC PKCzeta [37]: 92.5 POC
Avg POC AURKA [38]: 90 POC
Avg POC PKCiota [39]: 65.5 POC
Avg POC DMPK [40]: 101.5 POC
Avg POC KDR [41]: 97.5 POC
Avg POC eEF-2K [42]: 109.5 POC
Compound: COCc1ccc(C2CCC2)c(CNC(=O)Nc2c(C)c(-c3cnc(C)nc3)nn2-c2ccccc2)c1 [Example 10, 1-(2-cyclobutyl-5-(methoxymethyl)benzyl)-3-(4-methyl-3-(2-methylpyrimidin-5-yl)-1-phenyl-1H-pyrazol-5-yl)urea]

Avg POC TBK1 [1]: 105.5 POC
Avg POC ARK5 [2]: 85.5 POC
Avg POC EphA7 [3]: 94.5 POC
Avg POC NEK11 [4]: 108 POC
Avg POC CK1gamma1 [5]: 105.5 POC
Avg POC IR [6]: 68 POC
Avg POC LIMK1 [7]: 91.5 POC
Avg POC ROCK-II [8]: 107.5 POC
Avg POC PDGFRalpha [9]: 126.5 POC
Avg POC SRC [10]: 101 POC
Avg POC MuSK [11]: 94.5 POC
Avg POC FGFR3 [12]: 116 POC
Avg POC CK2alpha2 [13]: 99.5 POC
Avg POC p38beta [14]: 111.5 POC
Avg POC c-RAF [15]: 94.5 POC
Avg POC CK2 [16]: 94.5 POC
Avg POC SIK [17]: 139 POC
Avg POC MAP3K5 [18]: 100 POC
Avg POC PKCalpha [19]: 104.5 POC
Avg POC TLK2 [20]: 109 POC
Avg POC PASK [21]: 205 POC
Avg POC CSK [22]: 127.5 POC
Avg POC MKK7beta [23]: 159 POC
Avg POC MAP4K2 [24]: 115.5 POC
Avg POC PKCdelta [25]: 93 POC
Avg POC Yes [26]: 113 POC
Avg POC HIPK1 [27]: 115.5 POC
Avg POC JNK2alpha2 [28]: 89.5 POC
Avg POC ALK [29]: 116 POC
Avg POC ITK [30]: 124 POC
Avg POC Fms [31]: 88.5 POC
Avg POC BTK [32]: 125 POC
Avg POC Ros [33]: 100.5 POC
Avg POC AKT3 [34]: 124 POC
Avg POC GRK5 [35]: 82 POC
Avg POC EphA8 [36]: 123 POC
Avg POC PKCzeta [37]: 99 POC
Avg POC AURKA [38]: 112 POC
Avg POC PKCiota [39]: 64 POC
Avg POC DMPK [40]: 104 POC
Avg POC KDR [41]: 139.5 POC
Avg POC eEF-2K [42]: 169.5 POC
Compound: COCc1ccc(C(F)(F)F)c(CNC(=O)Nc2c(C)c(-c3cnn(C)c3)nn2-c2ccccc2)c1 [Example 33, 1-(1′,4-dimethyl-1-phenyl-1H,1′H-[3,4′-bipyrazol]-5-yl)-3-(5-(methoxymethyl)-2-(trifluoromethyl)benzyl)urea]
